Reference: patent publication US10471046B2, “Method for treating, preventing, or reducing the risk of skin infection” (Melinta Subsidiary Corp., priority 2014, dated 2019)
Converted amounts (≈) assume the structure as drawn. Where two headings read alike, the source gives them in different places.

Experiments:
P. acnes = assay: Agar dilution MIC (CLSI reference method); type: cell-based; conditions: Cutibacterium acnes
Enterococcus faecium = assay: MIC against ribosome-based resistance phenotypes; type: cell-based; conditions: Enterococcus faecium A6349; VanA + Lin-R (G2576U); read-out: Minimum Inhibitory Concentration (MIC)
Description: (§1) Furthermore, the antibiotic compounds can be assayed for anti-proliferative or anti-infective properties on a cellular level. For example, where the target organism is a microorganism, the activity of compounds of interest can be assayed by growing the microorganisms of interest in media either containing or lacking the compound. Growth inhibition can be indicative that the molecule could be acting as a protein synthesis inhibitor. […] For this purpose, a panel of bacterial strains can be assembled to include a variety of target pathogenic species, some containing resistance mechanisms that have been characterized. Use of such a panel of organisms permits the determination of structure-activity relationships not only in regards to potency and spectrum, but also with a view to obviating resistance mechanisms. The assays can be performed in microtiter trays according to conventional methodologies as published by The National Committee for Clinical Laboratory Standards (NCCLS) guidelines (NCCLS. M7-A5-Methods for Dilution Antimicrobial Susceptibility Tests for Bacteria That Grow Aerobically; Approved Standard-Fifth Edition. NCCLS Document M100-S12/M7 (ISBN 1-56238-394-9)).

G. vaginalis [1] = assay: Agar dilution MIC (CLSI reference method); type: cell-based; conditions: Gardnerella vaginalis
S. aureus = assay: Agar dilution MIC (CLSI reference method); type: cell-based; conditions: Staphylococcus aureus, ATCC29213; S. aureus ATCC 29213
Experimental: Susceptibility testing was performed by the agar dilution reference method (radezolid, linezolid, and clindamycin) and broth microdilution method (all agents) as described by the Clinical and Laboratory Standards Institute (CLSI).
For the agar dilution method, Brucella agar (BBL, 211086) was prepared according to the manufacturer's instructions and cooled to 48-50° C. in a water bath. Once the agar was cooled, it was supplemented with 10 mL of hemin+vitamin K1 Solution (Remel, R450951), 1 mL of 1 mg/mL vitamin K1 working solution (Sigma, V3501), and 50 mL laked sheep blood (Remel, R54004). The media was dispensed into 50 mL centrifuge tubes and held at 48-50° C. […] The diluted antimicrobial agents were added to the dispensed media, gently mixed, and poured into sterile petri dishes. Once hardened, the plates were held in anaerobic jars at room temperature and used the following day. […]
On the day of testing, a 0.5 McFarland equivalent of each isolate was prepared in Brucella broth with hemin+vitamin K1. […] BRU plates and those containing compound were incubated at 35° C. in an anaerobic environment for 24 hours, read, and re-incubated for an additional 24 hours followed by a final reading. […] Following incubation, MICs were determined as the lowest concentration showing a marked reduction in growth or no growth compared to the growth control plate.

F. magna [2] = assay: Agar dilution MIC (CLSI reference method); type: cell-based; conditions: Finegoldia magna, ATCC15794; F. magna ATCC 15794
F. magna [3] = assay: Broth microdilution MIC; type: cell-based; conditions: Finegoldia magna, ATCC15794; F. magna ATCC 15794
P. granulosum [4] = assay: Broth microdilution MIC; type: cell-based; conditions: P. granulosum ATCC 25746
[5] = Long-term rat safety study; type: in vivo; conditions: rat, in vivo, 100 mg/kg/day
Description: There was 100% survival in all dose groups.

G. vaginalis [6] = assay: Broth microdilution MIC; type: cell-based; conditions: Gardnerella vaginalis
B. fragilis = assay: Broth microdilution MIC; type: cell-based; conditions: Bacteroides fragilis, ATCC25285; B. fragilis ATCC 25285
Staphylococcus aureus = assay: MIC against ribosome-based resistance phenotypes; type: cell-based; conditions: Staphylococcus aureus A7820, Lin-R (G2576U) + Mac-R (ErmC), read-out: Minimum Inhibitory Concentration (MIC)
Description: as §1, with “mechanisms.” for “mechanisms. The assays can be performed in microtiter trays according to conventional methodologies as published by The National Committee for Clinical Laboratory Standards (NCCLS) guidelines (NCCLS. M7-A5-Methods for Dilution Antimicrobial Susceptibility Tests for Bacteria That Grow Aerobically; Approved Standard-Fifth Edition. NCCLS Document M100-S12/M7 (ISBN 1-56238-394-9)).”

Enterococcus faecalis = assay: MIC against ribosome-based resistance phenotypes; type: cell-based; conditions: ATCC29212, Enterococcus faecalis ATCC29212-P5, Lin-R (G2576U), read-out: Minimum Inhibitory Concentration (MIC)
Description: as §1, with “mechanisms.” for “mechanisms. The assays can be performed in microtiter trays according to conventional methodologies as published by The National Committee for Clinical Laboratory Standards (NCCLS) guidelines (NCCLS. M7-A5-Methods for Dilution Antimicrobial Susceptibility Tests for Bacteria That Grow Aerobically; Approved Standard-Fifth Edition. NCCLS Document M100-S12/M7 (ISBN 1-56238-394-9)).”

P. granulosum [7] = assay: Agar dilution MIC (CLSI reference method); type: cell-based; conditions: P. granulosum ATCC 25746
[8] = in vivo
[9] = ATCC14018, G. vaginalis ATCC 14018
[10] = ATCC49145, G. vaginalis ATCC 49145

SMILES: CC(=O)NC[C@H]1CN(c2ccc(N3CCOCC3)c(F)c2)C(=O)O1 [Linezolid, linezolid]
- MIC (P. acnes; ATCC11827, P. acnes ATCC 11827): 0.5 µg/mL (≈ 1.48 µM)
- MIC (P. acnes; ATCC11828, P. acnes ATCC 11828): 0.5 µg/mL (≈ 1.48 µM)
- MIC (P. acnes; ATCC29399, P. acnes ATCC 29399): 0.5 µg/mL (≈ 1.48 µM)
- MIC (Enterococcus faecium): 16 µg/mL
- MIC (G. vaginalis [1]; [9]): 0.5 µg/mL (≈ 1.48 µM)
- MIC (G. vaginalis [1]; [10]): 0.5 µg/mL (≈ 1.48 µM)
- MIC (S. aureus): 2 µg/mL (≈ 5.93 µM)
- MIC (F. magna [2]): 2 µg/mL (≈ 5.93 µM)
- MIC (F. magna [3]): 1 µg/mL (≈ 2.96 µM)
- MIC (P. granulosum [4]): 1 µg/mL (≈ 2.96 µM)
- cellularity of sternal and femoral bone marrow [5]: decreased cellularity of sternal and femoral bone marrow
- red cell mass, absolute reticulocyte and neutrophil counts [5]: decreased red cell mass, absolute reticulocyte and neutrophil counts
- MIC (G. vaginalis [6]; [9]): 0.5 µg/mL (≈ 1.48 µM)
- MIC (G. vaginalis [6]; [10]): 0.5 µg/mL (≈ 1.48 µM)
- MIC (B. fragilis): 2 µg/mL (≈ 5.93 µM)
- MIC (Staphylococcus aureus): 64 µg/mL
- MIC (Enterococcus faecalis): 32 µg/mL (≈ 94.9 µM)
- MIC (P. granulosum [7]): 2 µg/mL (≈ 5.93 µM)

SMILES: CC(=O)NC[C@H]1CN(c2ccc(-c3ccc(CNCc4cnn[nH]4)cc3)c(F)c2)C(=O)O1.Cl [model compound]
- solubility of salt in water (pH 4): 2600 µg/mL
- solubility of salt in water (pH 5.4): 200 µg/mL
- solubility of salt in water (pH 6.5): 60 µg/mL
- intrinsic solubility (pH 6.8): 10 µg/mL
- positive food effect [8]: 4 ×
- caco-2 permeability (caco-2): 0.5 ×10⁻⁶ cm/s
